Key:
[1] = tested on: human epithelial-like cell cancer-derived cell line A431; assay: Cells cultured by hanging drop method, ATP assay (Experimental Example 12); type: cell-based
Procedure: (§1) Human epithelial-like cell cancer-derived cell line A431 (manufactured by ATCC) was cultured using 10% FBS and 1% MEM non-essential amino acid solution (MEM NEAA, manufactured by Wako Pure Chemical Industries, Ltd.)-containing EMEM (manufactured by Wako Pure Chemical Industries, Ltd.)). In addition, bone marrow-derived human mesenchymal stem cells (BM-hMSC, manufactured by PromoCell) were cultured using a mesenchymal stem cell proliferation medium (manufactured by PromoCell). Each of the above-mentioned cells in the logarithmic growth phase was washed with PBS, a 0.25 w/v % trypsin-1 mmol/L EDTA (ethylenediaminetetraacetic acid) solution (manufactured by Wako Pure Chemical Industries, Ltd.) was added, and the cells were detached by incubating at 37° C. for 3 min. Each medium was added, the mixture was centrifuged, and the supernatant was removed.
(§2) The cell suspension was seeded by 10 μL in 15 drops on the back surface of the lid of a 3.5 cm dish (manufactured by Falcon, #351008) to form droplets. At this time, as a control, a medium supplemented with DMSO (final concentration of DMSO: 0.05%) was seeded by 10 μL in 15 drops. The lid was returned to a 3.5 cm dish added with 2 mL of PBS, and cultured for 2 days in an incubator at 37° C., 5% CO2. The cultured droplets were collected in a 1.5 mL tube, and the medium was added to a final volume of 150 μL.

[2] = tested on: Bone marrow-derived human mesenchymal stem cells (BM-hMSC); assay: as above; type: cell-based
Procedure: as §1, §2

[3] = tested on: Human umbilical vein endothelial cells; assay: Vascular endothelial cell, 3D culture, ATP assay (Experimental Example 14); type: cell-based
Procedure: Human umbilical vein endothelial cells (manufactured by PromoCell) were precultured in Endothelial Cell proliferation Medium (manufactured by PromoCell) medium (single layer culture). The above-mentioned cells in the logarithmic growth phase were washed with PBS, DetachKit (manufactured by PromoCell) was added, and adherent cells were detached by incubating at 37° C. for 3 min. The medium was added and the mixture was centrifuged and resuspended in the same medium.
The aforementioned cells were suspended in respective deacylated gellan gum-containing or not containing media (deacylated gellan gum concentration was 0.015 w/v %), and seeded in a 96 well low attachment U-bottom plate (manufactured by Corning, #4520, deacylated gellan gum-free medium), or a low attachment flat bottom plate (manufactured by Corning, #3474, deacylated gellan gum-containing medium) at a cell concentration of 700-2000 cells/90 μL/well (all 3D culture). […] The amount of each compound solution to be added was 10 μL/well. As a control, a DMSO solution dissolved in a medium was added (DMSO final concentration 0.1%).

[4] = tested on: Cercopithecus aethiops kidney epithelium-derived cell line Vero; assay: Animal cell lines, 3D culture, ATP assay (Experimental Example 15); type: cell-based; conditions: 4 days
Description: (§3) Various animal cell lines were precultured (single layer culture) as follows in respective media. Chinese hamster ovary-derived cell line CHO-K1 (manufactured by DS PHARMA BIO MEDICAL, 10% fetal bovine serum (FBS, manufactured by Corning)-containing Ham's F-12 medium (manufactured by Fujifilm Wako Pure Chemical Corporation)), Cercopithecus aethiops kidney epithelium-derived cell line Vero (purchased from JCRB cell bank, 5% FBS-containing Medium 199 medium (manufactured by Life Technologies)). The above-mentioned cells in the logarithmic growth phase were washed with PBS, a 0.25 w/v % trypsin-1 mmol/L EDTA (ethylenediaminetetraacetic acid) solution (manufactured by Fujifilm Wako Pure Chemical Corporation) was added, and adherent cells were detached by incubating at 37° C. for 3 min. Each medium was added and the mixture was centrifuged and resuspended in the same medium.
(§4) The aforementioned various animal cells were suspended in respective deacylated gellan gum-containing or not containing media (deacylated gellan gum concentration was 0.02 w/v % in Ham's F-12 medium, 0.015 w/v % in Medium 199 medium), and seeded in a 96 well low attachment U-bottom plate (manufactured by Corning, #4520, deacylated gellan gum-free medium), or a low attachment flat bottom plate (manufactured by Corning, #3474, deacylated gellan gum-containing medium) at a cell concentration of 700-2000 cells/90 μL/well (all 3D culture). […] The amount of each compound solution to be added was […]. As a control, a DMSO solution dissolved in a medium was added (DMSO final concentration 0.1%). […] When compared with the compound non-addition (control), one showing a value of not more than 119% as -, one showing a value of not less than 120% as ◯, and one showing a value of not less than 150% as ⊚ are shown in the twenty-third table and the twenty-fourth table.

[5] = tested on: Chinese hamster ovary-derived cell line CHO-K1; assay: as above; type: cell-based; conditions: CHO-K1; low attachment flat bottom plate (deacylated gellan gum-containing medium); 5 μM; 4 days
Description: as §3, §4

[6] = tested on: SKOV3 cells (human ovarian cancer-derived cell line); assay: Cell proliferation activity in three-dimensional medium FCeM, ATP assay (Experimental Example 1); type: cell-based; conditions: SKOV3, 3D medium FCeM, compound 5 μM, 4 days; DMSO control = 100%; average of two tests
Procedure: A cell proliferation promoting effect when the compound to be used in the present invention was added to a three-dimensional medium was studied. Specifically, precultured (adhesion cultured) SKOV3 cells (human ovarian cancer-derived cell line) were recovered and suspended in a three-dimensional cell culture medium (“FCeM (registered trade mark)” (Nissan chemical corporation)) to prepare a cell suspension. […] The cell suspension seeded in the plate was stood overnight at 37° C., 5% CO2. Then, a DMSO diluted solution (4.44 μL) of the compound to be used in the present invention was added at a final concentration of 5 μM (or two steps of […] and 10 μM) (no stirring after addition). After addition of each compound, the mixtures were stood for 4 days at 37° C., 5% CO2. […] The luminescence intensity (RLU value) was measured by FlexStation3 (manufactured by Molecular Devices), and cell proliferation was evaluated.
The proliferation rate was calculated based on the control (cells added with DMSO without containing the compound to be used in the present invention) as the standard (100%). The values shown in the tables are average values of the results of two tests.

plural animal cell lines = assay: Animal cell lines, summary over the cell lines (Experimental Example 15); type: cell-based; conditions: animal cell lines under three-dimensional conditions
Description: as §3, §4

hiPS cell line 253G1 = assay: Human pluripotent stem cell (hiPS cell), EZSPHERE plate, ATP assay (Experimental Example 13); type: cell-based; conditions: for relative value (%): hiPS 253G1, EZSPHERE plate, 5 μM, 3 days, RLU of DMSO addition = 100%; for proliferation activity (in words): human pluripotent stem cells under three-dimensional conditions
Procedure: hiPS cell line 253G1 (purchased from RIKEN) was cultured on a dish coated with vitronectin VTN-N (manufactured by Thermo Fisher Scientific) using mTeSR1 (registered trade mark) medium (manufactured by STEMCELL Technologies). The above-mentioned cells in the proliferation phase were washed with PBS (manufactured by Fujifilm Corporation Wako Pure Chemical Industries, Ltd.), TrypLE Select (registered trade mark) (manufactured by Thermo Fisher Scientific) was added and the mixture was incubated at 37° C. for 3 min to remove the detaching solution. The medium was added and the cells were detached by pipetting. Thereafter, the supernatant was removed by centrifugation.
The aforementioned cells were suspended in a medium containing 10 μM Y-27632 (manufactured by Fujifilm Corporation Wako Pure Chemical Industries, Ltd.) and seeded in a 96-well EZSPHERE plate (manufactured by AGC TECHNO GLASS CO., LTD., #4860-900) at a cell concentration of 10000 cells/200 μL/well. […] The amount of each compound solution to be added was 2 μL/well. As a control, a DMSO solution dissolved in a medium was added (DMSO final concentration 0.05%). The medium was exchanged by half the volume every day, and each compound solution was also added to make the compound concentration constant.

[7] = tested on: human ovarian cancer cell line SKOV3; assay: Action on SKOV3 cell-2: 3D (deacylated gellan gum) and 2D culture, EGF medium, ATP assay (Experimental Example 3); conditions: for relative value of RLU (number of viable cells): 4 days, compound non-addition = 100%
Procedure: According to the method of patent document 1 (WO 2014/017513), a composition of McCoy's 5a medium (manufactured by Sigma-Aldrich) containing 0.015% (w/v) deacylated gellan gum (KELCOGEL CG-LA, manufactured by Sansho Co., Ltd.) and 15% (v/v) FBS, 30 ng/mL human EGF (manufactured by PEPROTECH) was prepared using FCeM-series Preparation Kit (manufactured by Wako Pure Chemical Industries, Ltd.). In a single layer culture, a non-addition medium composition not containing deacylated gellan gum was prepared. Then, human ovarian cancer cell line SKOV3 (manufactured by DS PHARMA BIO MEDICAL) was suspended in the above-mentioned medium composition added with deacylated gellan gum, and dispensed into the wells of a 384 well flat bottom Ultr-low Attachment surface microplate (manufactured by Corning Incorporated, #3827) at 1000 cells/36 μL/well (three-dimensional culture (3D)). In a single layer culture (2D), human ovarian cancer cell line SKOV3 was suspended in the above-mentioned medium composition not containing deacylated gellan gum, and dispensed into the wells of a 384 well flat bottom microplate (manufactured by Corning Incorporated, #3712) at 400 cells/36 μL per well. After dispensing, the compound to be used in the present invention dissolved in dimethyl sulfoxide (DMSO) was added by 4 μL each at a final concentration of 0, 1, 5, 10, 20 μM, and continuously cultured for 4 days. Each plate was cultured in a standing state in a CO2 incubator (37° C., 5% CO2) for 4 days. An ATP reagent (40 μL) (CellTiter-Glo (registered trade mark) Luminescent Cell Viability Assay, manufactured by Promega) was added to the culture medium on day 4, and the mixture was stirred by a plateshaker (manufactured by AS ONE Corporation, Micro plate mixer NS-P) at room temperature for 15 min. The luminescence intensity (RLU value) was measured by EnSpire (manufactured by Perkin Elmer) and the luminescence value of the medium alone was subtracted to measure the number of viable cells.

CCC(=NNC(=O)CNc1ccccc1)c1ccc(O)c(C)c1O [k-1:H-1]
cell number (in words) ([1]; A431 cell line, three-dimensional cell culture by the hanging drop method): showed an effect of increasing the number | cell number (relative value) ([1]; A431 cell, hanging drop, 5 μM, 2 days, control = 100%): 252% | cell number (relative value) ([2]; BM-hMSC, hanging drop, 5 μM, 2 days, control = 100%): 186% | cell number (in words) ([2]; bone marrow-derived human mesenchymal stem cells, hanging drop method): showed an effect of increasing the number | relative value of RLU (number of viable cells) ([3]; HUVEC, low attachment U-bottom plate, 5 μM, 4 days, no-addition = 100%): 820% | proliferation activity (in words) ([3]; human umbilical vein endothelial cells under three-dimensional conditions): promoted proliferation activity in human umbilical vein endothelial cells | number of viable cells (RLU), relative value to control (100%) ([4]; low attachment U-bottom plate, 5 μM): ⊙ | number of viable cells (RLU), relative value to control (100%) ([4]; low attachment U-bottom plate, 10 μM): ⊙ | number of viable cells (RLU), relative value to control (100%) ([4]; low attachment flat bottom plate (deacylated gellan gum-containing medium), 5 μM): ⊙ | number of viable cells (RLU), relative value to control (100%) ([4]; low attachment flat bottom plate (deacylated gellan gum-containing medium), 10 μM): ⊙ | number of viable cells (RLU), relative value to control (100%) [5]: ◯ (one showing a value of not less than 120% as ◯) | proliferation rate (%) [6]: 233.26% | proliferation activity (in words) (plural animal cell lines): promoted proliferation activity in plural animal cell lines | relative value (%) (hiPS cell line 253G1): 166% | proliferation activity (in words) (hiPS cell line 253G1): promoted proliferation activity in human pluripotent stem cells

CCC(=NNC(=O)NC(C)c1cccc(O)c1)c1ccc(O)c(C)c1O (stereo not drawn) [k-1:I-10]
relative value of RLU (number of viable cells) ([7]; 2D single layer culture, 1 μM): 99% | relative value of RLU (number of viable cells) ([7]; 2D single layer culture, 5 μM): 98% | relative value of RLU (number of viable cells) ([7]; 2D single layer culture, 10 μM): 99% | relative value of RLU (number of viable cells) ([7]; 2D single layer culture, 20 μM): 100% | relative value of RLU (number of viable cells) ([7]; 3D culture (deacylated gellan gum), 1 μM): 100% | relative value of RLU (number of viable cells) ([7]; 3D culture (deacylated gellan gum), 5 μM): 135% | relative value of RLU (number of viable cells) ([7]; 3D culture (deacylated gellan gum), 10 μM): 181% | relative value of RLU (number of viable cells) ([7]; 3D culture (deacylated gellan gum), 20 μM): 197% | cell proliferation promoting effect (in words) ([7]; single layer culture (2D) of SKOV3 cells): a favorable cell proliferation promoting effect was not observed | cell proliferation promoting effect (in words) ([7]; three-dimensional culture (3D) of SKOV3 cells): exhibited cell proliferation promoting effect at a wide concentration range | relative value (%) (hiPS cell line 253G1): 194% | proliferation activity (in words) (hiPS cell line 253G1): promoted proliferation activity in human pluripotent stem cells

Reference: US20200165194A1, “ADDITIVE COMPOSITION FOR CULTURE MEDIUM, ADDITIVE COMPOUND FOR CULTURE MEDIUM, AND METHOD FOR CULTURE OF CELLS OR TISSUE USING SAME” (NISSAN CHEMICAL CORPORATION, priority 2017, published 2020)
